Article PMC9019904, “AD Informer Set: Chemical tools to facilitate Alzheimer's disease drug discovery” (Alzheimer's & Dementia : Translational Research & Clinical …, 2022)

What was measured:
[1] = test system: BV2 (mouse microglia) cell line; assay: pHrodo-myelin phagocytosis/cell viability high content imaging assay: phagocytosis signal; format: cell-based
How it was run: (§1)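 Imaging at high content captured pHrodo-myelin uptake about 22 hours after its addition, alongside a viability read-out from the same cells. Three measurements were derived, with intensity increase marking early apoptosis and decrease marking later apoptosis.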

[2] = test system: HMC3 (human microglia) cell line; assay: as above; format: cell-based
How it was run: as §1

[3] = test system: BV2 (mouse microglia) cell line; assay: pHrodo-myelin phagocytosis/cell viability high content imaging assay: viability (cell count, nuclear area, nuclear intensity); settings: 48 hours treatment
How it was run: (§2)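 BV2 mouse and HMC3 human microglia were treated with compounds at 10 μM for 48 h, with pHrodo-myelin present for the last 20 h. Viability was imaged as total cell count per well and mean nuclear intensity per cell. Values are means of duplicates, normalized to untreated wells as % control.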

[4] = test system: HMC3 (human microglia) cell line; assay: as above; settings: 48 hours treatment
How it was run: as §2

[5] = BV2 cells, 10 uM compound, 48 hours treatment, pHrodo-myelin final 20 hours
[6] = HMC3 cells, 10 uM compound, 48 hours treatment, pHrodo-myelin final 20 hours
[7] = BV2, compound 10 uM, pHrodo-myelin
[8] = HMC3, compound 10 uM, pHrodo-myelin

| Structure (SMILES) | 4. Phagocytosis (% control) [1, 5] | 4. Phagocytosis (% control) [2, 6] | 1. Cell count (% control) ([3]; BV2 cells, 10 uM compound) | 2. Nuclear Area (% Control) ([3]; BV2 cells, 10 uM compound) | 3. Nuclear DNA Intensity (% control) ([3]; BV2 cells, 10 uM compound) | 1. Cell count (% control) ([4]; HMC3 cells, 10 uM compound) | 2. Nuclear Area (% Control) ([4]; HMC3 cells, 10 uM compound) | 3. Nuclear DNA Intensity (% control) ([4]; HMC3 cells, 10 uM compound) | 4. Phagocytosis (% control) [1, 7] | 4. Phagocytosis (% control) [2, 8] | 1. Cell count (% control) ([3]; BV2, compound 10 uM) | 2. Nuclear Area (% Control) ([3]; BV2, compound 10 uM) | 3. Nuclear DNA Intensity (% control) ([3]; BV2, compound 10 uM) | 1. Cell count (% control) ([4]; HMC3, compound 10 uM) | 2. Nuclear Area (% Control) ([4]; HMC3, compound 10 uM) | 3. Nuclear DNA Intensity (% control) ([4]; HMC3, compound 10 uM) |
| --- | --- | --- | --- | --- | --- | --- | --- | --- | --- | --- | --- | --- | --- | --- | --- | --- |
| C[C@H](N/C(=N\c1cccc2ncccc12)NC#N)c1ccccc1 [UNC10302855A] | 124.5 % control | 63.4 % control | 130.8 % control | 103.4 % Control | 103.1 % control | 114.9 % control | 101.2 % Control | 97.7 % control | – | – | – | – | – | – | – | – |
| CCn1cc(C(=O)O)c(=O)c2c(N)c(F)c(NC3CCCCC3)cc21 [UNC10302843A] | – | – | – | – | – | – | – | – | 121.2 % control | 67.4 % control | 99.6 % control | 97.0 % Control | 118.4 % control | 0.0 % control | 0.0 % Control | 0.0 % control |
| Cc1cc(NC(=O)Nc2ccc(F)c(F)c2)n(-c2ccccc2)n1 [UNC10302846A] | 158.9 % control | 71.8 % control | 131.4 % control | 104.7 % Control | 107.1 % control | 127.2 % control | 103.4 % Control | 94.5 % control | – | – | – | – | – | – | – | – |
| CC(=O)N1CCN(c2ccc(OC[C@H]3CO[C@](Cn4ccnc4)(c4ccc(Cl)cc4Cl)O3)cc2)CC1 [UNC10100724A] | 280.0 % control | 144.4 % control | 129.7 % control | 103.8 % Control | 104.7 % control | 125.5 % control | 96.3 % Control | 100.1 % control | – | – | – | – | – | – | – | – |
| Clc1ccccc1C(c1ccccc1)(c1ccccc1)n1ccnc1 [UNC10100375A] | – | – | – | – | – | – | – | – | 144.4 % control | 70.1 % control | 67.3 % control | 102.8 % Control | 90.2 % control | 105.9 % control | 98.8 % Control | 95.6 % control |
| Oc1cc(CNC(=S)/C=C/c2cc(O)c(O)c(Br)c2)cc(O)c1O [UNC10302699A] | – | – | – | – | – | – | – | – | 235.2 % control | 92.5 % control | 17.7 % control | 116.2 % Control | 76.1 % control | 53.7 % control | 113.5 % Control | 119.4 % control |
| Cc1cccc(-c2nn3c(c2-c2ccnc4ccc(C(N)=O)cc24)CCC3)n1 [UNC10245080A] | 174.0 % control | 85.1 % control | 99.1 % control | 108.1 % Control | 97.4 % control | 126.0 % control | 104.6 % Control | 85.7 % control | – | – | – | – | – | – | – | – |
| CC(C)[C@H](O)C(=O)N[C@@H](C)C(=O)N[C@@H]1C(=O)N(C)CCc2ccccc21 [UNC10303095A] | 150.0 % control | 70.8 % control | 134.6 % control | 102.1 % Control | 104.4 % control | 156.2 % control | 97.1 % Control | 97.3 % control | – | – | – | – | – | – | – | – |
| O=S(=O)(NC1CCNCC1)c1cc(S(=O)(=O)c2ccccc2)ccc1C(F)(F)F [UNC10302840A] | – | – | – | – | – | – | – | – | 189.7 % control | 90.9 % control | 104.4 % control | 105.6 % Control | 95.4 % control | 108.8 % control | 103.9 % Control | 95.8 % control |
| CCc1cc2c(cc1N1CCC(N3CCOCC3)CC1)C(C)(C)c1[nH]c3cc(C#N)ccc3c1C2=O [UNC10245077A] | – | – | – | – | – | – | – | – | 169.6 % control | 22.4 % control | 128.2 % control | 94.3 % Control | 130.0 % control | 0.0 % control | 0.0 % Control | 0.0 % control |
| Nc1nc(Nc2ccc3c(c2)CC[C@@H](N2CCCC2)CC3)nn1-c1cc2c(nn1)-c1ccccc1CCC2 [UNC10220544A] | 0.0 % control | 0.8 % control | 2.8 % control | 94.5 % Control | 55.2 % control | 56.4 % control | 55.3 % Control | 170.6 % control | – | – | – | – | – | – | – | – |
| Cc1cc(O)cc2c1[C@]1(C)CCC3C(C)(C)CCC[C@]3(C)[C@H]1C2 (stereo partly shown) [UNC10302703A] | – | – | – | – | – | – | – | – | 179.0 % control | 74.6 % control | 88.9 % control | 108.7 % Control | 100.3 % control | 107.3 % control | 104.4 % Control | 94.7 % control |
| CC(=O)c1nc([C@@H](O)[C@H](O)[C@H](O)CO)c[nH]1 [UNC10303188A] | – | – | – | – | – | – | – | – | 181.8 % control | 91.3 % control | 136.1 % control | 102.5 % Control | 102.7 % control | 133.0 % control | 98.0 % Control | 87.6 % control |
| CC(C)(C)c1cnc(CSc2cnc(NC(=O)C3CCNCC3)s2)o1 [UNC10302585A] | 98.5 % control | 156.3 % control | 5.4 % control | 123.4 % Control | 85.3 % control | 57.0 % control | 118.9 % Control | 102.8 % control | – | – | – | – | – | – | – | – |
| CCCC[C@@H](C=O)NC(=O)[C@H](CC(C)C)NC(=O)OCc1ccccc1 [UNC10302674A] | 195.1 % control | 69.0 % control | 102.6 % control | 106.4 % Control | 106.3 % control | 146.0 % control | 103.5 % Control | 93.8 % control | – | – | – | – | – | – | – | – |
| O=C(NC1CC1)C(=O)C(Cc1ccccc1)NC(=O)[C@H]1CCC(=O)N1Cc1ccccc1 (stereo partly shown) [UNC10302676A] | 108.4 % control | 95.9 % control | 127.5 % control | 105.0 % Control | 102.8 % control | 123.8 % control | 98.7 % Control | 104.1 % control | – | – | – | – | – | – | – | – |
| CN(CCOc1ccc(CC2SC(=O)NC2=O)cc1)c1ccccn1 (stereo not shown) [UNC10121399D] | 142.2 % control | 81.9 % control | 82.8 % control | 102.9 % Control | 100.2 % control | 93.9 % control | 101.5 % Control | 97.8 % control | – | – | – | – | – | – | – | – |
| CC(C)CCN1c2nc(Nc3cc(F)c(O)c(F)c3)ncc2N(C)C(=O)C1C (stereo not shown) [UNC10302870A] | – | – | – | – | – | – | – | – | 123.8 % control | 178.1 % control | 15.1 % control | 106.7 % Control | 111.0 % control | 49.2 % control | 127.1 % Control | 123.8 % control |
| CCC(=O)O[C@]1(C(=O)SCF)[C@H](C)C[C@H]2[C@@H]3C[C@H](F)C4=CC(=O)C=C[C@]4(C)[C@@]3(F)[C@@H](O)C[C@@]21C [UNC10121416A] | 95.5 % control | 94.0 % control | 84.8 % control | 98.6 % Control | 113.9 % control | 136.9 % control | 109.9 % Control | 86.5 % control | – | – | – | – | – | – | – | – |
| c1ccc(CNc2nc(NCc3ccccc3)c3ccccc3n2)cc1 [UNC10302879A] | 0.00106 % control | 0.0516 % control | 27.3 % control | 94.3 % Control | 65.0 % control | 28.2 % control | 43.8 % Control | 179.2 % control | – | – | – | – | – | – | – | – |
